According to patent publication US9328111B2, “Substituted cycloocta[5,6]pyrido[4,3,2-de]phthalazines as PARP inhibitors” (BeiGene Ltd., priority 2011, dated 2016):

Each molecule was assayed against Tankyrase-2 (Homo sapiens (Human), UniProt Q9H2K2) (assay: biochemical). Details: read-out: Tankyrase-2 Inhibition @ 50 nM.
Sequence of Tankyrase-2 (Q9H2K2 whole entry): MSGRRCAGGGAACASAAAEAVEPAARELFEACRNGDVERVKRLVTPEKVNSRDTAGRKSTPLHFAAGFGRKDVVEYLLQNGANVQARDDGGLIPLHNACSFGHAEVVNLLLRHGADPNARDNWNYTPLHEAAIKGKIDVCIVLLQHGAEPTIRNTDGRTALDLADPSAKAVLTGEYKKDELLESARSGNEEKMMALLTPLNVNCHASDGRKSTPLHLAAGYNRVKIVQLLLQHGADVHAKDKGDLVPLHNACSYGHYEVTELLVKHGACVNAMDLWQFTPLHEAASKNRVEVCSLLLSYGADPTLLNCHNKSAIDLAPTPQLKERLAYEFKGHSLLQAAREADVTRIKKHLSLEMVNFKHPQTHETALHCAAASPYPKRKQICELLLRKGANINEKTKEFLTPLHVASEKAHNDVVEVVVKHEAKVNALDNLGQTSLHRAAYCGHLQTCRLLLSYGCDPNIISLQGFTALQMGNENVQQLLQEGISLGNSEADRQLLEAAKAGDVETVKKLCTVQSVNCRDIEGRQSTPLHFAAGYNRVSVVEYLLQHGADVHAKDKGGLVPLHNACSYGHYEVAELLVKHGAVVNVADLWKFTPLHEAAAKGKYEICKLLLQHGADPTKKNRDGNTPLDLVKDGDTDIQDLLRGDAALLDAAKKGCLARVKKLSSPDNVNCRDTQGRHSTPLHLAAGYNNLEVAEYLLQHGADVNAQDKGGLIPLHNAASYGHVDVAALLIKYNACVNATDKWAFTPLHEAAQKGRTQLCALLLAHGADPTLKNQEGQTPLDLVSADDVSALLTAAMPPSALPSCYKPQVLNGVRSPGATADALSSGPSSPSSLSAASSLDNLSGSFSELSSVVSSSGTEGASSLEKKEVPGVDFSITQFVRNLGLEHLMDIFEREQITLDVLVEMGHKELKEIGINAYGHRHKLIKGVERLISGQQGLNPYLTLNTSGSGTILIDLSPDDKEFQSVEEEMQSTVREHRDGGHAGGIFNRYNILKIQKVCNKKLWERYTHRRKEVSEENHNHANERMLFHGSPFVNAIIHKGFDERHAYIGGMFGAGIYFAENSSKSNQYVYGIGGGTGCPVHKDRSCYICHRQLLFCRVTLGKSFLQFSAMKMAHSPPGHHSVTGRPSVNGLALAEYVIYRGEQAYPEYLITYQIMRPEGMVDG

inhibition at 0.05 µM [%] | SMILES
14.3 | O=c1[nH]nc2c3c(cccc13)NC1=C2c2ccccc2CC1 [Example 12, 8,9-Dihydro-2H-benzo[a]pyridazino[5,4,3-kl]acridin-3(7H)-one]
14.1 | O=c1[nH]nc2c3c(c(Cl)ccc13)NC1=C2CCCC1 [Example 9, 6-Chloro-8,9,10,11-tetrahydro-2H-pyridazino[5,4,3-kl]acridin-3(7H)-one]
2.3 | O=c1[nH]nc2c3c(c(Cl)ccc13)NC1=C2CCCCC1 [Example 8, 6-Chloro-7,8,9,10,11,12-hexahydrocyclohepta[5,6]pyrido[4,3,2-de]phthalazin-3(2H)-one]

These molecules were tested on PARP PARylation in HeLa cells (assay: PARylation assay in HeLa cells after H2O2). Details: Homo sapiens, 200 μM H2O2.
Format: cell-based
Description: HeLa cells were seeded into a 96-well plate with clear bottom and black wall at an initial concentration of 5000 cells/well in culture medium (100 μL of DMEM containing 10% FBS, 0.1 mg/mL penicillin-streptomycin, and 2 mML-glutamine). The plates were incubated for 4 h at 37° C. under 5% CO2 atmosphere, and then compounds were added with serial dilutions over eight points over a 0.01 nM-10 μM final concentration range in 0.1% DMSO/culture medium. The plate was then incubated for 18 h at 37° C. in 5% CO2. Then DNA damage was provoked by addition of 60 μL of H2O2 solution in PBS (final concentration 200 μM). As a negative control, cells untreated with H2O2 were used. The plate was kept at 37° C. for 5 min. Then the medium was gently removed by plate inversion, and the cells were fixed by addition of ice-cold MeOH (100 μL/well) and kept at −20° C. for 20 min. After removal of the fixative by plate inversion and washing 10 times with PBS (120 μL), the detection buffer (50 μL/well, containing PBS, Tween (0.1%), and BSA (1 mg/mL)) together with the primary PAR mAb (Alexis ALX-804-220, 1:2000), the secondary anti-mouse Alexa Fluor 488 antibody (MolecularProbes A11029, 1:2000), and nuclear dye DAPI (Molecular Probes D3571, 150 nM) were added. Following overnight incubation at 4° C. in the dark, removal of the solution, and washing 6 times with PBS (120 μL), the plate was read on an ArrayScan VTI (ThermoFisher). Monitoring for PAR polymer was by detection of Alexa488 at XF100_485_20, exposure time of 0.05 s, and identification of the nuclei was by tracking DAPI with XF100_386_23, exposure time of 0.01 s. The mean value of total intensity of cells was calculated by measuring the average of total intensity of nuclei over the total number of DAPI-labeled nuclei. The EC50 was determined on the basis of the residual enzyme activity in the presence of increasing PARPi concentration.

SMILES | EC50 [nM]
O=c1[nH]nc2c3c(cccc13)NC1=C2CCNC1 [Example 14, 8,9,10,11-Tetrahydro-2H-phthalazino[8,1-bc][1,7]naphthyridin-3 (7H)-one] | 14
O=c1[nH]nc2c3c(cccc13)NC1=C2CCN(Cc2ccccc2)C1 [Example 18, 9-benzyl-8,9,10,11-tetrahydro-2H-phthalazino[8,1-bc][1,7]naphthyridin-3(7H)-one] | 9.7
O=c1[nH]nc2c3c(cccc13)NC1=C2CCCCCC1 [Example 3, 8,9,10,11,12,13-Hexahydro-2H-cycloocta[5,6]pyrido[4,3,2-de]phthalazin-3(7H)-one] | 0.6
Cc1ccc2c(=O)[nH]nc3c2c1NC1=C3CCCC1 [Example 5, 6-Methyl-8,9,10,11-tetrahydro-2H-pyridazino[5,4,3-kl]acridin-3(7H)-one] | 477
O=c1[nH]nc2c3c(c(Br)ccc13)NC1=C2CCCC1 [Example 7, 6-Bromo-8,9,10,11-tetrahydro-2H-pyridazino[5,4,3-kl]acridin-3(7H)-one] | 32
CC1(C)C(C(=O)N2CCC3=C(C2)Nc2cccc4c(=O)[nH]nc3c24)C1(C)C [Example 17, 9-(2,2,3,3-Tetramethylcyclopropanecarbonyl)-8,9,10,11-tetrahydro-2H-phthalazino[8,1-bc][1,7]naphthyridin-3(7H)-one] | 0.9
O=c1[nH]nc2c3c(cccc13)NC1=C2CCCC1 [Example 2, 8,9,10,11-Tetrahydro-2H-pyridazino[5,4,3-kl]acridin-3 (7H)-one] | 1.2
CC1(C)CCC2=C(C1)c1n[nH]c(=O)c3cccc(c13)N2 [Example 1, 10,10-Dimethyl-8,9,10,11-tetrahydro-2H-pyridazino[5,4,3-kl]acridin-3(7H)-one] | 0.8
O=c1[nH]nc2c3c(c(Br)ccc13)NC1=C2CCCCC1 [Example 6, 6-Bromo-7,8,9,10,11,12-hexahydrocyclohepta[5,6]pyrido[4,3,2-de]phthalazin-3(2H)-one] | 139
O=c1[nH]nc2c3c(cccc13)NC1=C2CCCCC1 [Example 4, 7,8,9,10,11,12-Hexahydrocyclohepta[5,6]pyrido[4,3,2-de]phthalazin-3(2H)-one] | 0.75

The next lines start with the values.

EC50 [nM] | SMILES
0.7 | CC(C)(C)OC(=O)N1CCC2=C(C1)Nc1cccc3c(=O)[nH]nc2c13 [Example 13, Tert-butyl 3-oxo-7,8,10,11-tetrahydro-2H-phthalazino[8,1-bc][1,7]naphthyridine-9(3H)-carboxylate]
269 | CC(C)(NC(=O)OCc1ccccc1)C(=O)N1CCC2=C(C1)Nc1cccc3c(=O)[nH]nc2c13 [Example 15, Benzyl(2-methyl-1-oxo-1-(3-oxo-10,11-dihydro-2H-phthalazino[8,1-bc][1,7]naphthyridin-9(3H,7H,8H)-yl)propan-2-yl)carbamate]
6.8 | O=c1[nH]nc2c3c(cccc13)NC1=C2c2ccccc2CC1 [Example 12, 8,9-Dihydro-2H-benzo[a]pyridazino[5,4,3-kl]acridin-3(7H)-one]
5.4 | CC1(C(=O)N2CCC3=C(C2)Nc2cccc4c(=O)[nH]nc3c24)CC1 [Example 16, 9-(1-Methylcyclopropanecarbonyl)-8,9,10,11-tetrahydro-2H-phthalazino[8,1-bc][1,7]naphthyridin-3(7H)-one]
43.2 | O=c1[nH]nc2c3c(c(Cl)ccc13)NC1=C2CCCC1 [Example 9, 6-Chloro-8,9,10,11-tetrahydro-2H-pyridazino[5,4,3-kl]acridin-3(7H)-one]
4.6 | O=c1[nH]nc2c3c(cccc13)NC1=C2CCC1 [Example 10, 7,8,9,10-Tetrahydrocyclopenta[5,6]pyrido[4,3,2-de]phthalazin-3(2H)-one]
43.2 | O=c1[nH]nc2c3c(c(Cl)ccc13)NC1=C2CCCCC1 [Example 8, 6-Chloro-7,8,9,10,11,12-hexahydrocyclohepta[5,6]pyrido[4,3,2-de]phthalazin-3(2H)-one]
